Experimental data reported in US20100221345A1, “OSTEOGENIC BIOMATERIAL CONTAINING OSTEOGENESIS PROMOTING SUBSTANCE AND NANOGEL” (NATIONAL UNIVERSITY CORPORATION TOKYO MEDICAL AND, priority 2006, published 2010).

Legend:
mouse parietal bone = assay: Osteogenesis in mouse parietal bone with PGE2-containing CHP nanogel (width by 2-D μCT); type: in vivo; conditions: 3-week old ICR mouse, local administration onto parietal bone 5 times a week for 4 weeks, PGE2 0.6 μg/ml, FIG. 3
Experimental: PGE2-containing hydrophobized polysaccharide nanogel was administered to a mouse parietal bone to observe osteogenesis.
(§1) The PGE2-containing CHP prepared by the same manner as in Example 2 was locally administrated onto the parietal bone of a 3-week old ICR mouse 5 times a week for 4 weeks. […] of the prepared PGE2-containing CHP solution (PGE2 0.6 μg/ml) was administered for a dose. Evaluation was conducted for 4 groups of physiological saline, PGE2, CHP, PGE2-containing CHP (N=5). After 4 weeks of administration, the mice were sacrificed, and the parietal bones were collected, and the width of the parietal bone was measured by 2-D μCT. In order to study the effect on the bones of a whole body, the amount of cancellous bone of the femur was evaluated.

MC3T3E1 cells [1] = assay: Cell differentiation by alkaline phosphatase (ALP) activity in osteoblast cell line; type: cell-based; conditions: PGE2 10 μM, 24 hours, FIG. 5
Experimental: (§2) In order to understand the mechanism at the cellular level of the PGE2-containing CHP nanogel, the osteoblast cell line MC3T3E1 cell culture system was used to analyze the cell differentiation by alkaline phosphatase (ALP) activity and the cell growth by the MTT method.
(§3) MC3T3E1 cells were seeded 5×10^3 cells/well in a 96-well plate and cultured in the presence of […] at 37° C. for 1 day. These cells were supplied with the PGE2-containing CHP solution (PGE2 10 μM) prepared in the same manner as in Example 2 to get the same concentration, then cultured in the presence of […] at 37° C. for 24 hours, then collected by scraping, and dissolved in 0.05 ml of a lysis buffer. The alkaline phosphatase (ALP) activity was measured according to the published protocols. In addition, the MTT method was conducted according to the published protocols.

femur cancellous bone = assay: Effect on bones of the whole body: amount of cancellous bone of the femur; type: in vivo, ICR mouse; conditions: same mice, local parietal administration 5 times a week for 4 weeks, FIG. 4
Experimental: as §1

MC3T3E1 cells [2] = assay: Cell growth by the MTT method in osteoblast cell line; type: cell-based; conditions: PGE2 10 μM, 24 hours, FIG. 5
Experimental: as §2, §3

amount of cancellous bone in the femur apart from the administration site (femur cancellous bone): increase
Structure (SMILES): CCCCC[C@H](O)/C=C/[C@H]1[C@H](O)CC(=O)[C@@H]1C/C=C\CCCC(=O)O [PGE2, Prostaglandin E2]
width of the parietal bone (mouse parietal bone): no change
cellular differentiation (ALP activity) (MC3T3E1 cells [1]): increase
cellular growth (MTT method) (MC3T3E1 cells [2]): increase
